Ten compounds from ChEMBL document CHEMBL1201862, “PubChem BioAssay data set” (2004) can be followed below.

Experiment [1] has as its target ADP-ribosylation factor GTPase-activating protein 1 (Rattus norvegicus, UniProt Q62848). Briefly: Fluorescence polarization-based biochemical high throughput dose response screening assay to identify inhibitors of ADP-ribosylation factor GTPase activating protein 1 (ARFGAP1). The class given is functional.
The target in the next experiment is Protein Wnt-3a (Mus musculus, UniProt P27467). Briefly: antagonism of Wnt3a pathway luciferase reporter – Wnt-LIGHT cells, luminescence, selectivity assay for Gli-SUFU antagonist project, dose response (AID 651570).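 Further: Wnt-LIGHT reporter cells stimulated with conditioned medium from Wnt3a-producing cells.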 In kind it is functional. The note with it: read-out: IC50_Mean. On the technique in general: Reporter assays use an easily measured gene product as a stand-in for the process of interest.
Protein Wnt-3a, sequence (P27467 whole entry): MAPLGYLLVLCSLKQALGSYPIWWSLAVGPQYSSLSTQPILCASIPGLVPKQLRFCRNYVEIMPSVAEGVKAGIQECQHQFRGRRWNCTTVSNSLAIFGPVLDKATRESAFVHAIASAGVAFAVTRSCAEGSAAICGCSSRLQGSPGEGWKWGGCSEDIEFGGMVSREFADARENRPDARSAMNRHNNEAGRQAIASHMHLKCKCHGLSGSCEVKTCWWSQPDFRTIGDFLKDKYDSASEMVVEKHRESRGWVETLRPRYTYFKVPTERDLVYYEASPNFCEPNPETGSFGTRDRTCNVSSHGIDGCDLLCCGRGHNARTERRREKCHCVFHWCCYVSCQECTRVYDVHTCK

Experiment [2] concerns the target T1, Orexin receptor type 2 (Homo sapiens, UniProt O43614).
T1 sequence (O43614 whole entry): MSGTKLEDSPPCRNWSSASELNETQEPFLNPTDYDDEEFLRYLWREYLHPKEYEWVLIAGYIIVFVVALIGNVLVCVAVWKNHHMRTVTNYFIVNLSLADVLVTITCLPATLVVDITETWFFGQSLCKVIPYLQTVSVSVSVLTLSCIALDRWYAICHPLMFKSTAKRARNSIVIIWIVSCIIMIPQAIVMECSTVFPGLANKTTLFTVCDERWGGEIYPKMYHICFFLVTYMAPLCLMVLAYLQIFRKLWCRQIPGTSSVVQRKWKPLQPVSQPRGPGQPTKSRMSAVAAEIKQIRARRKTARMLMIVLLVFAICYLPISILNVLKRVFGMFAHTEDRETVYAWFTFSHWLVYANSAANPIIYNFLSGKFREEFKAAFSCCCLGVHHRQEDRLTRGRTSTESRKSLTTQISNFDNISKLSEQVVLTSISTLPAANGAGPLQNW
In words: Counterscreen assay for antagonists of the orexin 1 receptor (OX1R; HCRTR1): Homogeneous Time Resolved Fluorescence (HTRF)-based cell-based dose response assay for antagonists of the orexin 2 receptor (OX2R; HCRTR2), run by assay provider. In kind it is functional.

Experiment [3] deals with T2, Orexin/Hypocretin receptor type 1 (Homo sapiens, UniProt O43613).
T2 sequence (O43613 whole entry): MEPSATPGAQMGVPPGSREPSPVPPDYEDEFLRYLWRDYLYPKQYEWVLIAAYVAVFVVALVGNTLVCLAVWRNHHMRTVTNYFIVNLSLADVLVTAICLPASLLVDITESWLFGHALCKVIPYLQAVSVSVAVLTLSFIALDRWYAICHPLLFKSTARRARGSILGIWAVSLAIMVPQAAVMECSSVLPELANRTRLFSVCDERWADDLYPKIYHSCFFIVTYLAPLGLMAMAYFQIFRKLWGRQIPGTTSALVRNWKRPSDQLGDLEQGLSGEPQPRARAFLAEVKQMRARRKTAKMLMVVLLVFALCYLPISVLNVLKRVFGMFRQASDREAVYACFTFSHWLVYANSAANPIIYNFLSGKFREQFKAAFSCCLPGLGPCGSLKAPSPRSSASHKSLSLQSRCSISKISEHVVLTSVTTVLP
Briefly: Fluorescence-based cell-based high throughput dose response assay for antagonists of the orexin 1 receptor (OX1R; HCRTR1). [Related pubchem assays (depositor defined):AID434989, AID435008, AID463079, AID485270, AID492963, AID492964, AID492965, AID493232, AID504717, AID504718]. The class given is functional.

Experiment [4] is described as follows: Luminescence Cell-Based Dose Retest to Confirm Inhibitors of Cancer Stem Cells. [Related pubchem assays (depositor defined):AID2717, AID2721]. The class given is functional. The note with it: Homo sapiens.
The target of experiment [5] is T2, Orexin/Hypocretin receptor type 1. In words: Homogeneous Time Resolved Fluorescence (HTRF)-based cell-based high throughput dose response assay for antagonists of the orexin 1 receptor (OX1R; HCRTR1). [Related pubchem assays (depositor defined):AID434989, AID435008, AID463079, AID485270, AID492963, AID492964, AID492965, AID493232, AID504717, AID504718]. In kind it is functional. (In TR-FRET formats the signal depends on donor and acceptor labels being close together.)

The next experiment has as its system CHO-K1. In words: Counterscreen for antagonists of the orexin 1 receptor (OX1R; HCRTR1): Homogeneous time resolved fluorescence (HTRF)-based cell-based dose response assay to identify antagonists of the parental CHO-K1 cell line. [Related pubchem assays (depositor defined):AID434989, AID435008, AID463079, AID485270, AID492963, AID492964, AID492965, AID493232, AID504699, AID504701]. Conditions: Cricetulus griseus. The class given is functional. On the technique in general: Counterscreens check selectivity or assay interference.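 Further: potency for inhibition of ATP-stimulated IP1 production as antagonists.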

Experiment [6] concerns the target T1, Orexin receptor type 2. In words: Counterscreen assay for antagonists of the orexin 1 receptor (OX1R; HCRTR1): Fluorescence-based cell-based dose response assay for antagonists of the orexin 2 receptor (OX2R; HCRTR2), run by assay provider. The class given is functional.
The nature of experiment [7]: Counterscreen for antagonists of the orexin 1 receptor (OX1R; HCRTR1): Fluorescence-based cell-based high throughput dose response assay to identify antagonists of the parental CHO cell line. [Related pubchem assays (depositor defined):AID434989, AID435008, AID463079, AID485270, AID492963, AID492964, AID492965, AID493232, AID504699, AID504701]. The class given is functional.

For experiment [8], the target named is T3, Rac GTPase-activating protein 1 (Homo sapiens, UniProt Q9H0H5).
T3 sequence (Q9H0H5 whole entry): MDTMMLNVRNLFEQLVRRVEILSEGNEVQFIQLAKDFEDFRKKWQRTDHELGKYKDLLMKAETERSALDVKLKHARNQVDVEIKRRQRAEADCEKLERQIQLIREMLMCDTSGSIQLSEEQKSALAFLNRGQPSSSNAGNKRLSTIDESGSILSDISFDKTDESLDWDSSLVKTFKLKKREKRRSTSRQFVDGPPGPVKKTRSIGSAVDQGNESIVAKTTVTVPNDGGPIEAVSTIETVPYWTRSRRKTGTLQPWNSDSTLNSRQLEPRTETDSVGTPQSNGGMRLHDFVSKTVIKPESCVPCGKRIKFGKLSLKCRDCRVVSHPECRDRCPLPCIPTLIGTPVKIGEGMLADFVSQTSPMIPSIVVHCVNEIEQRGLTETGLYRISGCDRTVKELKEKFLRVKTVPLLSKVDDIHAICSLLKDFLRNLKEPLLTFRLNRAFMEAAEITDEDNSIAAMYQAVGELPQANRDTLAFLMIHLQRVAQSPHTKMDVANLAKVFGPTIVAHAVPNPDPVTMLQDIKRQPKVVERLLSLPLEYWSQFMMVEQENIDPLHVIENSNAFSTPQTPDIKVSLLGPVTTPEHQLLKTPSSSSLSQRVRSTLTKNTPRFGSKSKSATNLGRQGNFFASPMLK
Briefly: blockers of MgcRacGAP-driven Rac1 GTP hydrolysis – biochemical, ADP Hunter fluorescence, primary and confirmatory, confirmation (AID 624330). The class given is functional.

The target of experiment [9] is T4, Sentrin-specific protease 1 (Homo sapiens, UniProt Q9P0U3).
T4 sequence (Q9P0U3 whole entry): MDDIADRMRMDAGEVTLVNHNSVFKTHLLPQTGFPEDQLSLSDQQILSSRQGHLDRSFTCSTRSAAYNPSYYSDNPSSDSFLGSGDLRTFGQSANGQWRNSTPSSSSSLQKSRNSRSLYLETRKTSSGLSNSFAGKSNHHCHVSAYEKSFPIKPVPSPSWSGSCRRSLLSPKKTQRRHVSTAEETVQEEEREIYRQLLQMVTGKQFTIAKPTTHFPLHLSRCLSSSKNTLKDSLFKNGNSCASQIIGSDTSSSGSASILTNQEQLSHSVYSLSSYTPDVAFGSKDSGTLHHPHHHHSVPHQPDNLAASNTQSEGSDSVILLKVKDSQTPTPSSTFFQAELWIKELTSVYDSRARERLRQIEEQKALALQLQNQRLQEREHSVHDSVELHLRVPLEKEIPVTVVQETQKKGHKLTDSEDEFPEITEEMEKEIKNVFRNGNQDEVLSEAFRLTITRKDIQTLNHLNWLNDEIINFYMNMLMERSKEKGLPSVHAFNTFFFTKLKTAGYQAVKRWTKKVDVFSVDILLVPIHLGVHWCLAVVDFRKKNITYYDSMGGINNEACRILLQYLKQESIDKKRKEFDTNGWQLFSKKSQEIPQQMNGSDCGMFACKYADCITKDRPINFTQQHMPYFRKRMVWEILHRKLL
In words: Dose response confirmation of small molecule inhibitors of the catalytic domain of the SUMO protease, SENP1 in a FRET assay. In kind it is functional. The note with it: read-out: IC50_Mean.

Experiment [10] concerns the target T4, Sentrin-specific protease 1. Briefly: SENP1 catalytic domain blockers, concentration series – biochemical, kinetic FRET, dose response (AID 651697). In kind it is functional. Conditions: read-out: IC50_Mean.
Experiment [11] deals with T5, Methionyl-tRNA synthetase, putative (Trypanosoma brucei brucei, UniProt Q38C91).
T5 sequence (Q38C91 whole entry): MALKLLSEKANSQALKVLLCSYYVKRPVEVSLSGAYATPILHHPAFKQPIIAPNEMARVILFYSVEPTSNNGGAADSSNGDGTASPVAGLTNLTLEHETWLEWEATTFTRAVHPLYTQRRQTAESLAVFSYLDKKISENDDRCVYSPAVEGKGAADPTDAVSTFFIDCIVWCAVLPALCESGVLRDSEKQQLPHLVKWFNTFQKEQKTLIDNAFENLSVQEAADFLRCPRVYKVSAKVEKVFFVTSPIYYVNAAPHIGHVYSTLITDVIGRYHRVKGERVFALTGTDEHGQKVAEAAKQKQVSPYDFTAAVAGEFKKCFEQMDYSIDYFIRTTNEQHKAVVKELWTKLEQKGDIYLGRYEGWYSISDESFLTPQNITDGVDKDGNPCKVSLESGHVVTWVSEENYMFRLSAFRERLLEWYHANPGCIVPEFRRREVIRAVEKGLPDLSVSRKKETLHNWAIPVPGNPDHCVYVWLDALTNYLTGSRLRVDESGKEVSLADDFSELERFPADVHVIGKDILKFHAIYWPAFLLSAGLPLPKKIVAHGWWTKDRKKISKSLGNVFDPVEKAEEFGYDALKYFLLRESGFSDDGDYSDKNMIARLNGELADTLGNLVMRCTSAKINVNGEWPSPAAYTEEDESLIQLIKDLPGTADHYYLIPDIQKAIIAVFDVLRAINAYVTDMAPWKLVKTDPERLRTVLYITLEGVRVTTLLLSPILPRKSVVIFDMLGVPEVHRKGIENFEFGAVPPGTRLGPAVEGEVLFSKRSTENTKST
In kind it is functional, Trypanosoma brucei brucei strain 927/4 GUTat10.1.

Experiment [12] deals with T5, Methionyl-tRNA synthetase, putative. In kind it is functional, Trypanosoma brucei brucei strain 927/4 GUTat10.1. This is another data set of the same source.
Experiment [13] is described as follows: Counterscreen for inhibitors of Trypanosoma brucei methionyl tRNA synthetase (MetRS): Luminescence-based cell-based high throughput dose response assay to identify compounds that are cytotoxic to Jurkat human T lymphocyte cells. The class given is functional.
Experiment [14] in a line: nonselective StAR promoter luciferase inhibitors – cell-based, luminescence, luciferase reporter, counter-screen for LRH-1 inverse agonist project, dose response (AID 651969). In kind it is functional.
Experiment [15] has as its target Nuclear receptor subfamily 5 group A member 2 (Homo sapiens, UniProt O00482). In kind it is functional, cell-based.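 Further: HEK293T cells transfected with LRH-1 and a StAR promoter luciferase reporter; potency for inhibitors that lower LRH-1 driven reporter light.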
Another experiment deals with Steroidogenic factor 1 (Homo sapiens, UniProt Q13285). Briefly: Counterscreen for inverse agonists of the liver receptor homolog-1 (LRH-1; NR5A2): Luminescence-based cell-based high throughput dose response assay to identify inverse agonists of the Steroidogenic Factor 1 Nuclear Receptor (SF1; NR5A1). The class given is functional.
Steroidogenic factor 1, sequence (Q13285 whole entry): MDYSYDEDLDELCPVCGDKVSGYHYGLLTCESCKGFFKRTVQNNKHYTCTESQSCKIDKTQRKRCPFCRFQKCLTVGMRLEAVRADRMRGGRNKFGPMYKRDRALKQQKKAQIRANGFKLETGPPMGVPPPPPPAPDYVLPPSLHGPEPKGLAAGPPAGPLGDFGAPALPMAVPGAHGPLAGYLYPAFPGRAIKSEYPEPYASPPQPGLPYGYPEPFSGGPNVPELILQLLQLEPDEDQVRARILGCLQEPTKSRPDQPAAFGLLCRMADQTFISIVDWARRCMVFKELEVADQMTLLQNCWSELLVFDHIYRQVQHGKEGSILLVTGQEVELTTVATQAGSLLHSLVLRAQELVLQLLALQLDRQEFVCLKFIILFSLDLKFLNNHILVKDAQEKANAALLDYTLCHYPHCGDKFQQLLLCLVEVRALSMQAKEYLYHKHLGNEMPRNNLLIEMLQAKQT

The source made the active and inactive calls.
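Wherever AC50 is given: cells exposed to compound for roughly 70 hours or longer before luminescence read.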

ADP-ribosylation factor GTPase-activating protein 1, sequence (Q62848 whole entry): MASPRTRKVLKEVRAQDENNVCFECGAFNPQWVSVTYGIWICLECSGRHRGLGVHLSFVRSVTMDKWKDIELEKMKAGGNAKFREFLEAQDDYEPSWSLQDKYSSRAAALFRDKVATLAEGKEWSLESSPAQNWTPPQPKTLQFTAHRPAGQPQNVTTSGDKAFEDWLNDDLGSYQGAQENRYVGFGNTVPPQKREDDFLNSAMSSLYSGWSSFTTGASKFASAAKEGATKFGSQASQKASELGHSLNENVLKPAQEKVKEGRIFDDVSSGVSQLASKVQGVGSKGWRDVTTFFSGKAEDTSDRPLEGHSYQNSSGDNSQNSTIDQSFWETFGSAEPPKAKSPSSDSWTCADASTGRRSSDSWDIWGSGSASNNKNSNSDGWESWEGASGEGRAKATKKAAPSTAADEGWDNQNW
Nuclear receptor subfamily 5 group A member 2, sequence (O00482 whole entry): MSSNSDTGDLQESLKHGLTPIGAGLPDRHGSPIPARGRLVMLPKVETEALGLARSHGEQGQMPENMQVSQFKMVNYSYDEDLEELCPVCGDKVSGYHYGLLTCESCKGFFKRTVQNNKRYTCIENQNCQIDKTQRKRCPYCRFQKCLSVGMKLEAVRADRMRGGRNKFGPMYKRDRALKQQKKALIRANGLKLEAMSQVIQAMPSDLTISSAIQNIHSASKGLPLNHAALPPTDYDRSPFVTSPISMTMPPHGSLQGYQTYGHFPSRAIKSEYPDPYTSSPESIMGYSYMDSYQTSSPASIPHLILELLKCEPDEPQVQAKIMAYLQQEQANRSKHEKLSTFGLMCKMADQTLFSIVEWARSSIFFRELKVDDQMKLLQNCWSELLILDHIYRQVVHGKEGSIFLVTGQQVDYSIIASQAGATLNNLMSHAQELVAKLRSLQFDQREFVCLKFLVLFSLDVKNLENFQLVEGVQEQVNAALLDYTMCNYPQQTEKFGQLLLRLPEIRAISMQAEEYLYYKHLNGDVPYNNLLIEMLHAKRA

Consider `COc1ccc2oc(C(=O)OCC(=O)N3CC(C)CC(C)C3)c(C)c2c1` (configuration not stated), for which, in experiment [1], the IC50 is 44.9 µM (inactive).

As to `Cc1ccc(C)c([N+]2=C3CCCCN3C(O)(c3cccs3)C2)c1` (configuration not stated), the IC50 at Protein Wnt-3a was 13.2 µM (active).

In general, AC50 refers to the concentration giving half of the maximal activity seen. As for `Cn1c2ccccc2c(=O)c2cc(C#Cc3ccccn3)ccc21`, the IC50 was > 50 µM (inactive) on Orexin receptor type 2 [2]; 3.9 µM (active) in experiment [3]; 0.413 µM (active) in [5]; > 66.2 µM (inactive) with CHO-K1; > 88.8 µM (inactive) on Orexin receptor type 2 [6]; > 49.7 µM (inactive) in [7]. The AC50 in experiment [4] was 9.17 µM (active).

Turning to `CC(=O)c1ccc(N2CCN(c3ccc(C(F)(F)F)cn3)CC2)cc1`, at Protein Wnt-3a, the IC50 was 24.3 µM (inactive).

As to `Cc1c(C(=O)OCC(=O)NCCN2C(=O)CSC2=O)oc2c1ccc1ccccc12`, the IC50 on Orexin receptor type 2 [2] was > 50 µM (inactive); in experiment [3] it was 6.78 µM (active); in experiment [5], 1.23 µM (active); in the experiment on CHO-K1 it was > 66.2 µM (inactive); at Orexin receptor type 2 [6] it was > 88.8 µM (inactive); in experiment [7], > 49.7 µM (inactive).

For `COc1cc(/C=C2\SC(=Nc3c(C)n(C)n(-c4ccccc4)c3=O)NC2=O)ccc1O`, the IC50 is 38.7 µM (active) in [8], 11.2 µM (active) in experiment [9] and 15.5 µM (active) in [10].

With `Fc1cccc(Nc2nc3ccccc3n3cnnc23)c1`, the IC50 was 2.13 µM (active) on Orexin receptor type 2 [2]; 7.59 µM (active) in experiment [3]; 2.03 µM (active) in [5]; > 66.3 µM (inactive) in the experiment on CHO-K1; > 88.8 µM (inactive) at Orexin receptor type 2 [6]; > 49.8 µM (inactive) in [7].

`C=CCNc1nc(NCCOC)c2sc(-c3ccccc3)cc2n1`: in [1], the IC50 was 101 µM (inactive).

With `C[C@H](O)[C@@H]1CN2CCc3c([nH]c4ccccc34)[C@@H]2C[C@@H]1N(C)C(=O)Nc1cc(Cl)cc(Cl)c1`, the IC50 was 14.9 µM (inactive) in experiment [11], 8.53 µM (active) in experiment [12] and 15.8 µM (inactive) in [13].

On to `CC(C)CC1(C)NC(=O)N(CC(=O)Nc2ccc3c(c2)OCCO3)C1=O` (configuration not stated), for which the figures for the IC50 (in [14]; in [15]; on Steroidogenic factor 1) were 35.9 µM (inactive), 42.7 µM (inactive) and 7.12 µM (active), respectively.
